Results: PubChem BioAssay AID2165 (The Scripps Research Institute Molecular Screening Center, 2009)
Calls of active or inactive are those of the source. Cut-off read from the data, not from the text of the source: active = IC50 below about 9 µM; inactive = the rest.

Target: Tyrosine-protein kinase JAK2 (Homo sapiens) (UniProt O60674)
Assay: JAK2V617F project follow-up: kinase, reporter, cytotoxicity – HEL and Ba/F3 cells, late-stage follow-up (AID 2165)
Settings: JAK2V617F panel: kinase, IRF1 reporter

Sequence of Tyrosine-protein kinase JAK2 (Homo sapiens) (O60674 whole entry, looked up, change not shown): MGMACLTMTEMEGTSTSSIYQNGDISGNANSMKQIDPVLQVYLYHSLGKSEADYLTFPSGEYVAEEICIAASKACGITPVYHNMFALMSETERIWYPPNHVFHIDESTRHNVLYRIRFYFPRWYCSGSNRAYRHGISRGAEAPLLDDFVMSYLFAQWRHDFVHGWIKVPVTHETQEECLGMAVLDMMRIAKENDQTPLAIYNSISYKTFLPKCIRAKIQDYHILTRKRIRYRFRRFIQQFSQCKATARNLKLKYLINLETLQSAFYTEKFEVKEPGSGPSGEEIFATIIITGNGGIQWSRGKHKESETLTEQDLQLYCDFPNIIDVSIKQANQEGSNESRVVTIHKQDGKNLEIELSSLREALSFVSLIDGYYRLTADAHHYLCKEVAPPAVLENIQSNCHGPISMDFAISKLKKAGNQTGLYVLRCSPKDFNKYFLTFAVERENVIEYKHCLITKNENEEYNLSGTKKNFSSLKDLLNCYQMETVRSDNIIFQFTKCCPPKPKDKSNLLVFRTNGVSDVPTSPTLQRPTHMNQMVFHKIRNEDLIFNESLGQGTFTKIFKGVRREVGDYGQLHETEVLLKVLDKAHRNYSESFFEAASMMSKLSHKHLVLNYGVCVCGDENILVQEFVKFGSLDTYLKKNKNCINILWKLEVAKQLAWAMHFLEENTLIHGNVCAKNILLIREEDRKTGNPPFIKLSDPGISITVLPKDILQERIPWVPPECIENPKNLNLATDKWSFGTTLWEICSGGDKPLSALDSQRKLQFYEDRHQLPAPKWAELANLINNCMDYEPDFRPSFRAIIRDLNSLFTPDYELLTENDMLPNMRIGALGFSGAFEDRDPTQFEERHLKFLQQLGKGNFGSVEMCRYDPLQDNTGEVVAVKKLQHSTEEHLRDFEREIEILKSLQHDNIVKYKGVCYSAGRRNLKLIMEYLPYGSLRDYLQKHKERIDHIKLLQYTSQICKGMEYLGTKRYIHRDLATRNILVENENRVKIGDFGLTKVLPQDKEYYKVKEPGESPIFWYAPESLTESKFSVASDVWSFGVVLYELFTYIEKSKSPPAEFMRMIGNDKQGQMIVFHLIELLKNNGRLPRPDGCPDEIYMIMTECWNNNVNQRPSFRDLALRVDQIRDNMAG

Row | Structure (SMILES) | IC50 (JAK2V617F) | IC50 (Ba/F3, irf1 reporter) | IC50 (HEL, irf1 reporter)
1 | Cc1ccc(O)c(NC(=O)COc2ccccc2Cl)c1 | 0.0247 µM | – | –
2 | COc1ccccc1/C=C/C(=O)c1c2c(c(C)[nH]c1=O)CCCC2 | 1.27 µM | > 40 µM (inactive) | 1.3 µM
3 | CCCCn1c(=N)n(CC(=O)c2ccc(Br)s2)c2ccccc21 | – | 3.61 µM | 9.86 µM
4 | Cc1nn(Cc2ccc(Cl)cc2Cl)c(C)c1NC(=O)CCl | – | 8.77 µM | 8.61 µM
5 | Oc1ccc(/C=N/N2CCN(C3c4ccccc4-c4ccccc43)CC2)cc1O | – | 2.47 µM | 5.15 µM
6 | Cc1cccc(OCC(=O)Nc2cc(C)ccc2O)c1 | – | 3.94 µM | > 40 µM (inactive)
7 | COc1cccc(F)c1C(C[N+](=O)[O-])c1c(N)n(C)c(=O)n(C)c1=O (centres undefined) | – | 5.77 µM | 9.37 µM
8 | Cc1cc2[nH]c3c(c[n+](C)c4ccccc34)c2cc1C | – | 7.72 µM | 7.35 µM
9 | Cc1cccc(N(Cc2ccccc2)C(=O)CCl)c1 | – | 1.13 µM | 4.76 µM
10 | O=C(Nc1cccc(NC(=O)c2cccs2)c1)c1ccc([N+](=O)[O-])o1 | – | 4.5 µM | 3.31 µM
11 | O=c1cnn([C@@H]2O[C@H](CO)[C@@H](O)[C@H]2O)c(=O)[nH]1 | – | > 40 µM (inactive) | > 40 µM (inactive)
12 | Cc1[nH]c(=O)c(C(=O)C=Cc2ccc(I)cc2)c2c1CCCC2 | > 40 µM (inactive) | 0.82 µM | 11.2 µM
13 | N#Cc1ccccc1NC(=O)COc1ccc2c(c1)OCO2 | > 40 µM (inactive) | – | > 40 µM (inactive)
14 | Nc1nc(CCl)nc(Nc2ccc3ccccc3c2)n1 | – | 7.46 µM | 0.958 µM
15 | O=C(CCl)N=c1sccn1Cc1ccc(Cl)cc1Cl | – | 6.08 µM | 2.22 µM
16 | Nc1nc(CCl)nc(N(c2ccccc2)c2ccccc2)n1 | – | 14.3 µM | 2.64 µM
17 | Cc1cc(C)c(C(=O)/C=C/c2ccccc2F)c(=O)[nH]1 | 0.71 µM | 24 µM | 1.17 µM
18 | O=C(CCl)NCc1cc(-c2ccc(Cl)cc2)no1 | – | 5.56 µM | 7.68 µM
19 | Cc1cccc(OCC(=O)Nc2cc(C)c(C)cc2O)c1 | > 40 µM (inactive) | – | –
20 | O=C(/C(=N/N=C/c1ccc(O)c(O)c1)c1ccccc1)c1ccccc1 | – | 6.61 µM | 9.46 µM
21 | COc1cc2ncnc(Sc3ccc(C)cc3)c2cc1OC | > 40 µM (inactive) | – | 4.55 µM

Row | Structure (SMILES) | IC50 (JAK2V617F) | IC50 (Ba/F3, irf1 reporter) | IC50 (HEL, irf1 reporter)
22 | COc1cccc(/C=N/NC(=O)c2[nH]c(C)c(C(=O)N/N=C/c3cccc(OC)c3O)c2C)c1O | – | 19.8 µM | 9.67 µM
23 | Cc1[nH]c(=O)c(C(=O)/C=C/c2ccccc2)c2c1CCCC2 | 1.15 µM | > 40 µM (inactive) | 2.03 µM
24 | CCCn1c(CC)nc([N+](=O)[O-])c1S(=O)(=O)c1ccccc1 | – | 4.37 µM | 4.36 µM
25 | O=S(=O)(c1cnc(Cl)c(Br)c1)N1CCc2ccccc21 | – | 6.61 µM | > 40 µM (inactive)
26 | COc1cc(/C=C2\COC/C(=C\c3ccc(O)c(OC)c3)C2=O)ccc1O | – | 1.99 µM | 7.86 µM
27 | COc1ccc(C2=Nn3c(nnc3C3CCCCC3)SC2)cc1OC | – | 8.93 µM | 13.3 µM
28 | Cc1[nH]c(=O)c(C(=O)C=Cc2cccc(Br)c2)c2c1CCCC2 | 0.55 µM | 0.59 µM | 1.13 µM
29 | COc1ccccc1-c1nnc(Sc2nc([N+](=O)[O-])nn2C)o1 | – | 35.5 µM | 13.6 µM
30 | Cc1ccccc1CS(=O)(=O)c1nnc([C@H](Cc2ccccc2)NC(=O)OC(C)(C)C)o1 | – | 1.56 µM | 13.5 µM
31 | CNC(=O)c1nnsc1S(=O)c1ccc(Cl)cc1 (centres undefined) | – | 0.199 µM | 12.1 µM
32 | COc1ccc(-c2cc(-c3cc(C)ccc3O)[nH]n2)cc1 | – | 7.06 µM | 1.82 µM
33 | CCC(C)c1ccc(OCC(=O)Nc2cc(C)ccc2O)cc1 (centres undefined) | 33.2 µM | – | –
34 | COc1ccccc1N(C(=O)CCl)c1cn(C(C)=O)c2ccccc12 | – | 2.17 µM | 9.3 µM
35 | C=CCNc1ncnc2cc(OC)c(OC)cc12 | > 40 µM (inactive) | – | > 40 µM (inactive)
36 | COc1ccccc1C(C[N+](=O)[O-])c1c(N)n(C)c(=O)n(C)c1=O (centres undefined) | – | 6.82 µM | 17 µM
37 | Cc1ccc(O)c(NC(=O)COc2ccc(I)cc2)c1 | 0.0268 µM | – | –
38 | COc1ccc2nc(C)cc(Sc3nc4ccccc4s3)c2c1 | – | 2.98 µM | 11 µM
39 | Cc1oc2c(O)c(O)ccc2c(=O)c1-c1cnn(-c2ccccc2)c1 | – | 12.8 µM | 8.52 µM
40 | COc1ccc(C=CC(=O)c2c3c(c(C)[nH]c2=O)CCCC3)cc1 | 6.94 µM | > 40 µM (inactive) | > 40 µM (inactive)
41 | O=C(Oc1cccc2c(O)cccc12)c1ccccc1 | – | 8.18 µM | > 40 µM (inactive)
42 | CCN1C/C(=C/c2ccc(OC)c(O)c2)C(=O)/C(=C/c2ccc(OC)c(O)c2)C1 | – | 2.36 µM | 2.75 µM

Row | Structure (SMILES) | IC50 (JAK2V617F) | IC50 (Ba/F3, irf1 reporter) | IC50 (HEL, irf1 reporter)
43 | COc1cc2ncnc(Nc3cccc(Br)c3)c2cc1OC | 4.94 µM | 1.31 µM | 3.16 µM
44 | O=C(NCCc1cccnc1)C1CCC(=O)N(CCc2cccc(F)c2)C1 (centres undefined) | > 40 µM (inactive) | – | > 40 µM (inactive)
45 | CCCn1c(CN(C)Cc2ccccc2)nc2c1c(=O)n(C)c(=O)n2C | – | 6.43 µM | > 40 µM (inactive)
46 | Clc1ccc(-n2nnnc2Sc2ncnc3sccc23)cc1 | – | 1.19 µM | 23.3 µM
47 | O=S(=O)(c1cnc(Cl)c(Cl)c1)N1CCc2ccccc21 | – | 6.39 µM | > 40 µM (inactive)
48 | O=C(OCn1ncc(Cl)c(Cl)c1=O)c1ccccc1Cl | – | 4.03 µM | 4.45 µM
49 | Cc1[nH]c(=O)c(C(=O)C=Cc2ccc(Cl)cc2Cl)c2c1CCCC2 | 1.43 µM | 0.53 µM | 2.57 µM
50 | COc1cc2ncnc(Nc3ccccc3)c2cc1OC | > 40 µM (inactive) | – | 5.92 µM
51 | COc1cc2ncnc(Nc3cccc(Cl)c3)c2cc1OC | > 40 µM (inactive) | – | > 40 µM (inactive)
52 | CCS(=O)(=O)c1ccc(O)c(NC(=O)COc2cccc(C)c2)c1 | > 40 µM (inactive) | – | –
53 | O=C(/C=C/c1ccc(O)c(O)c1)c1ccc(S(=O)(=O)N2CCCCCC2)cc1 | – | 2.33 µM | > 40 µM (inactive)
54 | COC(=O)/C=C/c1ccc(OC(=O)OC)c(OC(=O)OC)c1 | – | 12.6 µM | 27.7 µM
55 | O=C(O)c1[nH]c(=O)[nH]c(=O)c1F | – | > 40 µM (inactive) | > 40 µM (inactive)
56 | CCOc1ccc(C(=O)C(CN2CCOCC2)c2ccccc2)cc1 (centres undefined) | – | 16.6 µM | 11 µM
57 | CN(c1ccccc1)S(=O)(=O)c1cccc(C(=O)NCCc2ccc(O)c(O)c2)c1 | – | 3.02 µM | 2.97 µM
58 | COc1ccc([N+](=O)[O-])c(S(=O)(=O)c2ccc(Cl)cc2)n1 | – | 0.395 µM | 10.4 µM
59 | Cc1ccc(O)c(NC(=O)COc2ccc(Cl)cc2)c1 | 1.51 µM | – | –
60 | COc1cc2ncc(-c3ccccc3)nc2cc1OC | > 40 µM (inactive) | > 40 µM (inactive) | 0.69 µM
61 | O=C(COc1ccccc1)Nc1ncccn1 | > 40 µM (inactive) | – | > 40 µM (inactive)
62 | Oc1ccccc1OCCOc1ccccc1OCCOc1ccccc1O | – | 6.74 µM | 15.9 µM
63 | CS(=O)(=O)c1nc(-c2ccco2)cc(C(F)(F)F)n1 | – | 0.869 µM | 7.42 µM
